Data set [1] deals with T1, E3 ubiquitin-protein ligase CBL-B (Homo sapiens, UniProt Q13191). Briefly: Inhibition of Cbl-b (unknown origin) by TR-FRET assay. (In general: Time-resolved FRET reads energy transfer from a long-lived donor to a nearby acceptor.)
Data set [2] concerns the target T1, E3 ubiquitin-protein ligase CBL-B. Briefly: Inhibition of Cbl-b (unknown origin) ubiquitination by TR-FRET assay.
Data set [3] shares this target.
Description: Binding affinity to CBl-b (unknown origin) assessed as dissociation constant by Surface plasmon resonance
Data set [4] can be described thus: Intrinsic clearance in mouse liver microsomes by HPLC-MS/MS analysis.
Data set [5] can be described thus: Half life in rat plasma. The class given is ADME, cell-free.
Data set [6] addresses T1, E3 ubiquitin-protein ligase CBL-B. Briefly: Inhibition of recombinant Cbl-b (unknown origin) ubiquitination incubated for 1 hr by TR-FRET assay.
The target is the same in data set [7]. Briefly: Inhibition of biotinylated recombinant Cbl-b (36 to 427 residues)(unknown origin) expressed in Escherichia coli BL21(DE3) measured for 1 hr by TR-FRET assay.
The target is the same in data set [8]. Description: Inhibition of Cbl-b (unknown origin).
The target is the same in data set [9]. Description: Inhibition of Cbl-b (unknown origin) by SPR assay. For orientation: In SPR one partner is held on a chip, and binding of the other changes the refractive index at the surface.
For data set [10] the target is unchanged. Briefly: Inhibition of Cbl-b (unknown origin) by HTRF assay.
The target is the same in data set [11]. Briefly: Inhibition of N-terminal His-tagged human Cbl-b (40 to 426 residues) expressed in Escherichia coli by measured for 90 mins by HTRF method.

The text below walks through data of ChEMBL document CHEMBL5550096, “Casitas b cell lymphoma‑B (Cbl-b): A new therapeutic avenue for small-molecule immunotherapy” (Bioorg Med Chem, 2024).

Where a SMILES comes first, the peptide text is derived from it. [ ]: non-standard residue; d: D form. The star is where a group is joined. pY = N[C@@H](Cc1ccc(OP(=O)(O)O)cc1)C(=O)O; Myristoyl = CCCCCCCCCCCCCC(=O)*

A word on the IC50: it is the concentration that gives 50% inhibition. As usually defined, the Kd is a measure of binding affinity in units of concentration. High values mean weaker binding, low ones tighter binding. As usually defined, the CLint scaled is the rate of metabolic loss divided by the concentration. Lower therefore signals greater metabolic stability. The half-life is how long it takes for the measured level to halve.

T1 sequence (Q13191 whole entry): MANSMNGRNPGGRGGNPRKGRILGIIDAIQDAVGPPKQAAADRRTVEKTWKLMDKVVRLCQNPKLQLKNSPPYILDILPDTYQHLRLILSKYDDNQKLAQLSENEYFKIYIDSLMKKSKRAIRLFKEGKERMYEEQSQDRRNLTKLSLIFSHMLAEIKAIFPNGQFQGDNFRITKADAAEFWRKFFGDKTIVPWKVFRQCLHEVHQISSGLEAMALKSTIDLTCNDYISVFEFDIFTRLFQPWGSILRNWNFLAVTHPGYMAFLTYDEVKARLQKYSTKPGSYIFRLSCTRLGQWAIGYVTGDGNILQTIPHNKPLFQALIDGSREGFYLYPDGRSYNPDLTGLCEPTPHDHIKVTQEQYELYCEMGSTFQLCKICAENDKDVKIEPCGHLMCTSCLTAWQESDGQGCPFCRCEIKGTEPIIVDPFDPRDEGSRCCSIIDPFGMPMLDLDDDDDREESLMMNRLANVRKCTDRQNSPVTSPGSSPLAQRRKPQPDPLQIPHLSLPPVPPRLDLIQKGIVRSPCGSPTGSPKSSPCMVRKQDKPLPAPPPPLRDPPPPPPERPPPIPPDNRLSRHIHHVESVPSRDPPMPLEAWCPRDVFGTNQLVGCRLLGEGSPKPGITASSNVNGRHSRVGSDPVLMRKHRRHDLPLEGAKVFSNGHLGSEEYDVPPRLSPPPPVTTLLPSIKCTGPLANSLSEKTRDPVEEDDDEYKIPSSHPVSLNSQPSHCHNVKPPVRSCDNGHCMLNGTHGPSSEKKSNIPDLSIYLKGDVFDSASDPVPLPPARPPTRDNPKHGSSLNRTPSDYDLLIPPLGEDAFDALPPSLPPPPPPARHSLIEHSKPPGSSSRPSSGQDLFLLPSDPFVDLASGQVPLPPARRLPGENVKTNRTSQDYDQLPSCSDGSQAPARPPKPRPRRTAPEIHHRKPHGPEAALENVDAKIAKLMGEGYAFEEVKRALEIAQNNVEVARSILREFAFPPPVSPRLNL

Regarding `Cc1cc(C(=O)Nc2cccc(C3(Cc4nncn4C)COC3)c2)nc(C2CC2)n1`, the IC50 in data set [1] was 20 nM; in data set [2] it was 21 nM. Further, in [3], binding was put at a Kd of 20 nM.
In the case of `C[C@H](Sc1nncn1C)c1cccc(NC(=O)c2ccnc(C3CC3)n2)c1`, the CLint scaled in data set [4] came out at 500 mL/min/kg. Further, the half-life in data set [5] is 2.33 h.
As for `C[C@H]1CCCN(Cc2cc3c(c(C(F)(F)F)c2)CN(c2cccc([C@]4(c5nncn5C)C[C@@H](C)C4)c2)C3=O)C1`, the IC50 in [2] and in data set [6] was < 5 nM in each case. The Kd in data set [3] amounted to 8 nM.
Consider `Cn1cnnc1C(F)(F)[C@](C)(F)c1cccc(NC(=O)N2CC3(CNC3)Oc3cccnc32)c1`, for which the IC50 in [7] and in data set [8] was < 100 nM in each case.
As for `COCC1(NCc2cc3c(c(C(F)(F)F)c2)CN(c2cccc([C@]4(c5nncn5C)C[C@H](OC)C4)c2)C3=O)CC1`, 4 nM corresponded to half-maximal inhibition in [9] (IC50). The compound also returned a Kd in [3] of 4 nM.
Turning to `C[C@H](Cc1nncn1C)c1cccc(-c2n[nH]c3c(CN4CC[C@H](F)C4)cc(C(F)(F)F)nc23)c1`, the IC50 in data set [7] and in data set [8] was < 100 nM throughout.
With `Cn1cnnc1-c1cc(C#N)ccc1-c1cc(C2CC2)nc(N2Cc3c(cc(CNCC4(F)CCC4)cc3C(F)(F)F)C2=O)c1`, the figures for the half-inhibitory concentration (IC50) in data set [9] and in data set [10] were 200 nM and < 200 nM, respectively.
For the compound `Cc1cc(CNC2(C)CCC2)cc2c(=O)c(-c3cccc([C@]4(c5nncn5C)C[C@@H](C)C4)c3)coc12`, the figures for the IC50 in data set [8] and in data set [11] were 10 nM and 13 nM, respectively.
As to `Cn1cnnc1[C@]1(c2cccc(NC(=O)c3cc(CN4CCC[C@H](C(F)F)C4)cn4ccnc34)c2)C[C@H](CC#N)C1`, the IC50 in data set [8] turned out to be 5 nM; in data set [11] it was 1 nM.
For the compound `CC(c1cc(C(=O)Nc2cccc([C@]3(c4nncn4C)C[C@@H](CC#N)C3)c2)nc2cc[nH]c12)N1CCC[C@H](C)C1` (stereo partly specified), the figures for the IC50 in data set [8] and in data set [11] were 11000 nM and 4 nM, respectively.
Regarding `C[C@H]1CCCN(Cc2cc(C(F)(F)F)c3[nH]c(-c4cccc([C@]5(c6nncn6C)C[C@@H](C)C5)c4)nc3c2)C1`, the IC50 in [7] and in [8] was < 200 nM throughout.
For `Cn1cnnc1[C@]1(c2cccc(-n3cc4c(C(F)(F)F)cc(CN5CCC6(CC6)C5)cn4c3=O)c2)C[C@H](C)C1`, the IC50 in data set [7], in data set [8] and in data set [6] was < 100 nM in each case.
As to `Cn1cnnc1[C@]1(c2cccc(-c3cnc4c(C(F)(F)F)cc(CN5CC6CC(C)(C6)C5)cn4c3=O)c2)C[C@H](C)C1`, the IC50 in data set [8] was found to be 20 nM; in [11], 25 nM.
For the compound `Cn1cnnc1[C@]1(c2cccc(N3C(=O)c4cc(CNC5(C)CCC5)cc5cccc3c45)c2)C[C@H](C)C1`, the IC50 in data set [9] and in data set [10] was 20 nM each time.
As to `CO[C@@]1(C(=O)N/C=C/c2ccc(O)cc2)O[C@](O)(C(=O)N/C=C/c2ccc(O)cc2)[C@@H](c2ccc(O)c(O)c2)[C@@H]1c1ccc(O)c(O)c1`, the IC50 in [8] is 11000 nM.
Compound `O=C(N/C=C/c1ccc(O)cc1)c1c(-c2ccc(O)c(O)c2)c(-c2ccc(O)c(O)c2)c(C(=O)N/C=C/c2ccc(O)cc2)n1CCc1ccc(O)cc1` came in with an IC50 in data set [8] of 6500 nM.
As for `CC(C)[C@H]1CN(C)CCN1Cc1cc(C(=O)Nc2cccc(C3([C@@H](F)c4nncn4C)CC(F)(F)C3)c2)nc(C2CC2)c1`, the IC50 in data set [2] and in data set [10] was 7 nM in each case.
In the case of `CCCCCCCCCCCCCC(=O)N[C@@H](CC(=O)O)C(=O)NCC(=O)N[C@@H](Cc1ccc(OP(=O)(O)O)cc1)C(=O)N[C@@H](CCSC)C(=O)N1CCC[C@H]1C(=O)O` (Myristoyl-DG[pY]MP-OH), the IC50 in [6] was 30000 nM.
